# From ChEMBL document CHEMBL5370605, “Discovery of Novel Fedratinib-Based HDAC/JAK/BRD4 Triple Inhibitors with Remarkable Antitumor Activity against Triple Negative Breast Cancer” (J Med Chem, 2023)
# Legend:
# [1] = biological target: Tyrosine-protein kinase JAK1 (Homo sapiens, UniProt P23458); test: Inhibition of JAK1 (unknown origin) incubated for 40 mins in presence of ATP by Kinase-glo luminescent assay
# in vitro = details: human, GES1 cells
# Histone deacetylase 1 = Histone deacetylase 1 (Homo sapiens, UniProt Q13547); test: Inhibition of HDAC1 (unknown origin) using Boc-Lys(Ac)-AMC as substrate incubated for 30 mins by fluorescence based analysis
# Sequence of Histone deacetylase 1 (Q13547 whole entry): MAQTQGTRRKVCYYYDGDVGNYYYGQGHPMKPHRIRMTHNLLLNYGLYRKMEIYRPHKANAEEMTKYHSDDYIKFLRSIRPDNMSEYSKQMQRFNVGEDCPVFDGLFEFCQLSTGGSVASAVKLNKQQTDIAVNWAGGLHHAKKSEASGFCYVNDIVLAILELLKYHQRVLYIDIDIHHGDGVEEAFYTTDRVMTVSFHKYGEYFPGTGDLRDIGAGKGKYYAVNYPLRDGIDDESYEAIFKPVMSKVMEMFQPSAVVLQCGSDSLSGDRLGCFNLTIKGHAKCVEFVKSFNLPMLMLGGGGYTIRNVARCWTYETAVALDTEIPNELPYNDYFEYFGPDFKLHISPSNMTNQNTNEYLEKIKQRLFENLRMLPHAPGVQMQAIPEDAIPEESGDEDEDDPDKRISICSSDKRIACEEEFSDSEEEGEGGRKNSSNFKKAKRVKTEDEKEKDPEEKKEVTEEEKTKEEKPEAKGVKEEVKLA
# [2] = biological target: Bromodomain-containing protein 4 (Homo sapiens, UniProt O60885); test: Inhibition of recombinant BRD4 BD1 (unknown origin) using H4KAc as substrate incubated for 30 mins by HTRF analysis
# MDA-MB-231 [3] = test: cells; details: Homo sapiens, MDA-MB-231, 48 h
# [4] = Selectivity index, ratio of IC50 for human GES-1 cells to IC50 for human MDA-MB-231 cells
# [5] = MRT (0 to t) in ICR (CD-1) mouse at 10 mg/kg, iv measured for 24 hrs by LC-MS/MS analysis; format: ADME, organism-based; details: in vivo
# [6] = AUC (0 to t) in ICR (CD-1) mouse at 10 mg/kg, iv measured for 24 hrs by LC-MS/MS analysis; format: ADME, organism-based; design: dose 10 mg/kg, time 24 hrs, route iv; details: in vivo
# [7] = Cytotoxicity against human GES1 cells assessed as inhibition of cell growth incubated for 48 hrs in presence of SAHA by MTT assay; format: toxicity, cell-based
# [8] = In vivo inhibition of JAK1 in athymic BALB/c nude mouse xenografted with human MDA-MB-231 cells assessed as fold change in phosphorylated STAT3 level at Tyr705 residue in tumor at 25 mg/kg, ip administered for 28 consecutive days by Western blot analysis (reference value: 1); format: functional; details: time 28 day
# [9] = Half life in ICR (CD-1) mouse at 50 mg/kg, ip measured for 24 hrs by LC-MS/MS analysis; format: ADME, organism-based; details: in vivo
# [10] = Toxicity in athymic BALB/c nude mouse xenografted with human MDA-MB-231 cells assessed as reduction in body weight at 50 mg/kg/day, ip administered for 2 days; format: organism-based; details: in vivo, 48 h, time 2 day
# MDA-MB-231 [11] = test: Antiproliferative activity against human MDA-MB-231 cells assessed as inhibition of cell growth incubated for 48 hrs in presence of SAHA by MTT assay; format: functional, cell-based; details: MDA-MB-231, 48 h
# [12] = Metabolic stability in mouse liver microsomes assessed as half life in presence of NADPH by LC-MS/MS analysis; format: ADME, Microsome
# [13] = Metabolic stability in mouse liver microsomes assessed as intrinsic clearance in presence of NADPH by LC-MS/MS analysis; format: ADME, Microsome; details: read-out: CLH
# [14] = In vivo inhibition of JAK1 in athymic BALB/c nude mouse xenografted with human MDA-MB-231 cells assessed as fold change in STAT3 level in tumor at 25 mg/kg, ip administered for 28 consecutive days by Western blot analysis (reference value: 1); format: functional; details: time 28 day
# [15] = Half life in ICR (CD-1) mouse at 10 mg/kg, iv measured for 24 hrs by LC-MS/MS analysis; format: ADME, organism-based; details: in vivo
# [16] = In vivo inhibition of HDAC1 in athymic BALB/c nude mouse xenografted with human MDA-MB-231 cells assessed as fold change in acetyl-histone H3 level in tumor at 25 mg/kg, ip administered for 28 consecutive days by Western blot analysis (reference value: 1); format: functional; details: time 28 day
# [17] = AUC (0 to t) in ICR (CD-1) mouse at 50 mg/kg, ip measured for 24 hrs by LC-MS/MS analysis; format: ADME, organism-based; design: dose 50 mg/kg, time 24 hrs, route ip; details: in vivo
# [18] = Tmax in ICR (CD-1) mouse at 50 mg/kg, ip measured for 24 hrs by LC-MS/MS analysis; format: ADME, organism-based; details: in vivo
# [19] = In vivo inhibition of BRD4 in athymic BALB/c nude mouse xenografted with human MDA-MB-231 cells assessed as fold change in c-Myc level in tumor at 25 mg/kg, ip administered for 28 consecutive days by Western blot analysis (reference value: 1); format: functional; details: time 28 day
# [20] = Volume of distribution at steady state in ICR (CD-1) mouse at 10 mg/kg, iv measured for 24 hrs by LC-MS/MS analysis; format: ADME, organism-based; details: in vivo
# [21] = MRT (0 to t) in ICR (CD-1) mouse at 50 mg/kg, ip measured for 24 hrs by LC-MS/MS analysis; format: ADME, organism-based; details: in vivo
# GES1 = test: Cytotoxicity against human GES1 cells at 1 uM incubated for 48 hrs by MTT assay; format: toxicity, cell-based; details: ges1, 48 h
# MDA-MB-231 [22] = test: Antitumor activity against human MDA-MB-231 cells xenografted in athymic BALB/c nude mouse assessed as the tumor growth inhibition at 25 mg/kg/day, ip administered for 28 days and measured every 3 days by vernier caliper analysis relative to control; format: functional; details: MDA-MB-231, 672 h, time 28 day, read-out: TGI
# [23] = Cmax in ICR (CD-1) mouse at 10 mg/kg, iv measured for 24 hrs by LC-MS/MS analysis; format: ADME, organism-based; design: time 24 hrs, dose 10 mg/kg, route iv; details: in vivo
# [24] = Cmax in ICR (CD-1) mouse at 50 mg/kg, ip measured for 24 hrs by LC-MS/MS analysis; format: ADME, organism-based; design: time 24 hrs, dose 50 mg/kg, route ip; details: in vivo
# [25] = Bioavailability in ICR (CD-1) mouse at 50 mg/kg, ip measured for 24 hrs by LC-MS/MS analysis; format: ADME, organism-based; details: ICR (CD-1), in vivo
# [26] = Toxicity in athymic BALB/c nude mouse xenografted with human MDA-MB-231 cells assessed as reduction in body weight at 25 mg/kg/day, ip administered for 28 consecutive days; format: organism-based; details: in vivo, 672 h, time 28 day
# Sequence of Tyrosine-protein kinase JAK1 (P23458 whole entry): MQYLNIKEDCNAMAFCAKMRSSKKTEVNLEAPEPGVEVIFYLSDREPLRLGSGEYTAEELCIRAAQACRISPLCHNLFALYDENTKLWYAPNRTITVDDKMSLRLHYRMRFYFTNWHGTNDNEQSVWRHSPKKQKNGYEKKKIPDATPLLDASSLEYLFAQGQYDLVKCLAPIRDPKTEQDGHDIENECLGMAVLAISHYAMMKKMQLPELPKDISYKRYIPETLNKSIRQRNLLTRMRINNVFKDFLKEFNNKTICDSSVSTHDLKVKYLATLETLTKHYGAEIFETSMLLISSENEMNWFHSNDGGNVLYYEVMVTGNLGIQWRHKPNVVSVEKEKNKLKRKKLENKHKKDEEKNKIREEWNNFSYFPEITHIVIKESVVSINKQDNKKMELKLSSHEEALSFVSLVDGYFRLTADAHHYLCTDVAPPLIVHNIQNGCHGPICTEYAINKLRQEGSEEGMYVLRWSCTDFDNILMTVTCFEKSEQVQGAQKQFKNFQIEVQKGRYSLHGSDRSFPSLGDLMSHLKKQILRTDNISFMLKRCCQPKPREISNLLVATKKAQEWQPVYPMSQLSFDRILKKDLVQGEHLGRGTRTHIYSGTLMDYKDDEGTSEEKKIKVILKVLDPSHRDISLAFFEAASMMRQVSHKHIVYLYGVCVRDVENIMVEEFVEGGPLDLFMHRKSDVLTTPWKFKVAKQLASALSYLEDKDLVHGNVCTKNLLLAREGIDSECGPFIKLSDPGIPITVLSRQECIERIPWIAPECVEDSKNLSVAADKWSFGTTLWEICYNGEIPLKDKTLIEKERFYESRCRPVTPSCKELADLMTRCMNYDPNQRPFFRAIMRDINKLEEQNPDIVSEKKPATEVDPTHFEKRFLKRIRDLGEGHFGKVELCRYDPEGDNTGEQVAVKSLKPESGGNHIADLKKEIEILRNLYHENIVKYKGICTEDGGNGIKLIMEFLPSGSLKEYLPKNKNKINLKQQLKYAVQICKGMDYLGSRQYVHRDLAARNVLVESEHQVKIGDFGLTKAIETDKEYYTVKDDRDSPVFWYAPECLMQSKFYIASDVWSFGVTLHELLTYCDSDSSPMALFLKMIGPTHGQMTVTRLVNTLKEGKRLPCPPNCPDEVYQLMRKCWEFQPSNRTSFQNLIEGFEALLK
Compound,IC50 [1],IC50 at 48 h (in vitro),IC50 (Histone deacetylase 1),IC50 [2],IC50 (MDA-MB-231 [3]),selectivity ratio [4],MRT(t) [5],AUCt [6],half-life [9],t1/2 [15],AUC(0-t) at 24 h [17],Tmax [18],Vdss [20],MRT last at 24 h [21],Cmax [23],Cmax [24],bioavailability [25],also measured
CCCN(N)C(=O)c1ccc(Nc2nc(Nc3ccc(N4CCN(C)CC4)c(F)c3)ncc2C)cc1,10.4 nM,11500 nM,> 5000 nM,2360 nM,4500 nM,2.5,–,–,–,–,–,–,–,–,–,–,–,–
Cc1cnc(Nc2ccc(/C=C/C(=O)NO)cc2)nc1Nc1ccc(Cl)c(NS(=O)(=O)C(C)(C)C)c1,14.6 nM,28600 nM,380 nM,1290 nM,3400 nM,7.1,–,–,–,–,–,–,–,–,–,–,–,–
Cc1cnc(Nc2ccc(N3CCN(C)CC3)c(F)c2)nc1Nc1ccc(C(=O)Nc2ccccc2N)cc1,5.9 nM,9700 nM,> 5000 nM,1810 nM,2200 nM,4.4,–,–,–,–,–,–,–,–,–,–,–,–
Cc1cnc(Nc2ccc(OCCN3CCCC3)cc2)nc1Nc1cccc(S(=O)(=O)NC(C)(C)C)c1 [FEDRATINIB],–,890 nM,–,–,1400 nM,–,113 min,2825 ng·h/mL,173 min,327 min,14500 ng·h/mL,4.8 min,8.74 L/kg,140 min,4430 ng/mL,9750 ng/mL,102%,IC50 at 48 h [7]: 610 nM; fold change (FC) [8]: 0.5; Activity [10]: Toxic; IC50 (MDA-MB-231 [11]): 460 nM; half-life [12]: 5.6 min; CLint scaled [13]: 976 mL/min/kg; fold change (FC) [14]: 1.3; fold change (FC) [16]: 0.8; fold change (FC) [19]: 1.1; Activity (GES1): Toxic; inhibition in vivo at 25 mg/kg/day (MDA-MB-231 [22]): 32%; Activity [26]: Non-Toxic
O=C(CCCCCCC(=O)Nc1ccccc1)NO [VORINOSTAT],–,–,–,–,–,–,7.2 min,783 ng·h/mL,81 min,17.4 min,2550 ng·h/mL,4.8 min,1.59 L/kg,40.2 min,6640 ng/mL,3930 ng/mL,65%,–
